Reference: the NIST ThermoML archive (doi:10.1021/je700384e)
± gives the expanded uncertainty stated by the source.

Settings: Crystal; DTA

Compared with `O=C=O` [carbon dioxide], `[N-]=[N+]=O` [nitrous oxide] is lower in Triple point temperature: 216.56 ± 0.5 K for the first, 181.99 ± 0.5 K for the second.

`CC(F)F` [1,1-difluoroethane] showed a Triple point temperature of 154.3 ± 0.5 K.
